Assay results from patent publication US8071549B2, “Compounds capable of affecting differentiation, proliferation, regeneration, plasticity and survival cells” (priority 2001, dated 2011).
Peptide text beside a SMILES is read from it.

Columns and labels:
[1] = tested on: hippocampal neurons; experiment: Neurite outgrowth from hippocampal neurons; details: for neurite outgrowth in dose-response study: bell-shaped dose-response curve, 24 h
Procedure: Neurons were grown on Permanox plastic (Nunc, Denmark) for 24 h at a density 6250 cells/cm^2, at 37° C., 5% CO2 in Neurobasal medium containing 20 mM Hepes, 100 U/ml penicillin, 100 μg/ml streptomycin, 0.4% BSA supplemented with B27 (Gibco BRL, USA). After 24 h, cells were fixed with paraformaldehyde, stained with Coomassie Brilliant Blue R250 and analyzed.
To test this assumption, dissociated neurons from embryonic rat hippocampus were seeded on plastic and allowed to grow for 24 h in the presence of the below described compounds. Thereafter, cells were fixed with paraformaldehyde, stained with Coomassie Brilliant Blue R250 and the length of neurites was measured using a stereological approach (Rønn et al., 2000).
Peptides derived from the FG-lops of the neural cell adhesion molecules L1 and NCAM (third F3-module of L1 and first F3 module of NCAM) were prepared in different lengths, see FIG. 9a, and their effect on neurite outgrowth from primary hippocampal neurons were tested adding the various peptides in a concentration of 25 microM.

[2] = tested on: Cerebellar granule neurons; experiment: Survival assay of cerebellar granule neurons in low potassium (MTS); type: cell-based, rat; details: 5 mM potassium, two days; for cells surviving, high potassium set at 100%: serum-free
Procedure: Cerebellar granule neurons (CGN) from 7-days old rats are grown for 7-8 days in the presence of high potassium (40 mM). Cells are washed twice with serum-free culture medium (basal Eagle's medium BME) containing low potassium (5 mM) and grown in serum-free medium supplemented with FGL peptide for two days. Cultures are assayed for cell survival (D'Mello et al., 1997; Villalba et al., 1997; Skaper et al., 1998) by measuring reduction of MTS. MTS is a novel tetrazolium compound (Promega, USA), which is bioreduced by cells into a formazan that is soluble in tissue culture medium. The absorbance of the formazan at 490 nm is measured directly from 96 well assay plates without additional processing. The conversion of MTS into the aqueous soluble formazan is accomplished by dehydrogenase enzymes found in metabolically active cells. The quantity of formazan product as measured by the amount of 490 nm absorbance is directly proportional to the number of living cells in culture (Yao and Cooper, 1995);

[3] = target: T1, FGF-receptor 1 (Homo sapiens, UniProt P11362); experiment: FGF-receptor phosphorylation in transfected HEK293 cells (immunoblotting); type: cell-based; details: 25 μM, 20 min, HEK293 cells with His-tagged FGF-receptor 1
T1 construct: expressed in transfected cells; host or cells: HEK293, transient, PcDNA3.1(+) plasmid
Procedure: Cells were grown in DMEM 1965 with 10% FCS, 100 U/ml penicillin, 100 μg/ml streptomycin and 58.4 g/l Glutamax. ˜0.8*10^6 cells were plated in 60 mm plates and cultured for 24 hrs before being transfected using LipofectAMIN PLUS™ reagent kit according to manufacturers instructions (Gibco BRL) with 0.2 μg PcDNA3.1(+) plasmid encoding a his-tagged (C-terminal hexa-histidine) version of FGFR-1. Cells were grown another 24 hrs in full medium, and then shifted to starving media (DMEM 1965 with 0.5% FCS) overnight.
FGFR-1 transfected cells, incubated with 50 μg/ml NCAM derived recombinant fIII.2 or FG-loop for 20 minutes or non-stimulated, were lysed in 8M urea in PBS with 1 mM orthovanadate. The FGFR-1 was purified from total lysate via the His-tag moiety on an IMAC column. […] Samples were added SDS-PAGE sample buffer and analysed by western blotting using anti-pentahis ab (#34660 Qiagen) or anti-phosphotyrosine ab (PY20) (#11120 Transduction Laboratories). Bands were visualised by chemilumiscense and density was measured using a GeneGnome from SynGene with a 16 bit camera.
Therefore, HEK293 cells were grown for 24 h on plastic plates, and subsequently transfected with a His-tagged version of the FGF-receptor 1 and cultured for another 24 h. […] The purified FGF-receptor 1 was then analyzed by immunoblotting using antibodies either to the His-tag or phosphotyrosine. […]

T1 sequence (P11362 22-822): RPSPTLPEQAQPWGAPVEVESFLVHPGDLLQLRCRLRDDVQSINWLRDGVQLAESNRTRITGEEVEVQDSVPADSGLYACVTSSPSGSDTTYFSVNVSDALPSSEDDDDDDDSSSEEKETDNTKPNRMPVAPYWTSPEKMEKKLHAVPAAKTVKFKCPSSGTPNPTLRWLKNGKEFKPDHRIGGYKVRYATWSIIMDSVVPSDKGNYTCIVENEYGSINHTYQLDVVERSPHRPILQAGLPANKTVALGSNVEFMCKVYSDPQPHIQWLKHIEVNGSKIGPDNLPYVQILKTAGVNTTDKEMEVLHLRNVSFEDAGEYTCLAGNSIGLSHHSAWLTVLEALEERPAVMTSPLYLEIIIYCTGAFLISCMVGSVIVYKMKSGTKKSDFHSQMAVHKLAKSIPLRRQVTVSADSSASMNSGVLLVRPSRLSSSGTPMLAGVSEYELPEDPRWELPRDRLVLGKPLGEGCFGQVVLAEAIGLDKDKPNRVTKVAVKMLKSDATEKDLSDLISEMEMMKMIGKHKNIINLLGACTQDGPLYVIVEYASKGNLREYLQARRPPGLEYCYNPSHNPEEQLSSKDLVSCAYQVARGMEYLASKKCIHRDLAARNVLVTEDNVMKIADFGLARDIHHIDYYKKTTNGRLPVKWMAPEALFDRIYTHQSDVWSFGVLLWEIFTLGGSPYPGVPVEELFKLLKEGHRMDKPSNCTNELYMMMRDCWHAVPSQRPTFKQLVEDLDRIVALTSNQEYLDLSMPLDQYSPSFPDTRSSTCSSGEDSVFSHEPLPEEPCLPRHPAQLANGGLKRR

Molecule: Nc1ncnc2c1ncn2[C@@H]1O[C@H](COP(=O)(O)OP(=O)(O)CP(=O)(O)O)[C@@H](O)[C@H]1O [AMP-PCP, reference compound]
- inhibition of the neuritogenic effect of the F3 module ([1]; 5 μM second F3 module, inhibitor 0.4 or 1 mM): complete inhibition
- effect on neurite outgrowth when added alone ([1]; 0.4 or 1 mM): did not have any effect

Molecule: CC(C)[C@H](NC(=O)[C@H](Cc1ccc(O)cc1)NC(=O)[C@@H](NC(=O)[C@@H](N)CCC(=O)O)C(C)C)C(=O)N[C@H](C(=O)N[C@@H](C)C(=O)N[C@@H](CCC(=O)O)C(=O)N[C@@H](CC(N)=O)C(=O)N[C@@H](CCC(N)=O)C(=O)N[C@@H](CCC(N)=O)C(=O)NCC(=O)N[C@@H](CCCCN)C(=O)N[C@@H](CO)C(=O)N[C@@H](CCCCN)C(=O)N[C@@H](C)C(=O)O)C(C)C [FG loop peptide] (H-EVYVVAENQQGKSKA-OH)
- survival, % of the positive control ([2]; 250 microgram per ml, monomeric form): up to 90%
- survival, result in words ([2]; dose-range 2-250 microgram per ml): statistically significant survival
- inhibition of induced neurite outgrowth by an antibody against the FGF-receptor ([1]; 5 μM second F3 module or 50 μM FG loop peptide): complete inhibition
- neurite outgrowth in dose-response study [1]: induced neurite outgrowth
- increase of FGF-receptor phosphorylation compared to control cells [3]: approx. 100%

Molecule: AENQQGK [heptamer Ala 77-Lys 83]
- stimulatory effect retained as compared to the entire (non-mutated) FG loop peptide ([1]; 50 μM peptide): approximately 50%
- neurite outgrowth in dose-response study [1]: induced neurite outgrowth
- neuritogenic efficiency compared with the extended form ([1]; dose-response study): less efficient than the extended form

Molecule: AMKEDGR (listed as Homo sapiens)
- neuritogenic potency (neurite outgrowth), result in words ([1]; 50 μM peptide): to the same extent as the similar seven amino acids from the second F3 module of NCAM

Molecule: EVAVVAENQQGASAA (listed as Homo sapiens)
- neuritogenic potency (neurite outgrowth), result in words ([1]; 50 μM peptide): retained its neuritogenic potency
- stimulatory effect retained as compared to the entire (non-mutated) FG loop peptide ([1]; 50 μM peptide): about 60%
- inhibition of the peptide's stimulatory effect by ATP ([1]; 50 μM peptide, ATP 0.4 or 1 mM): could no longer be inhibited by ATP

Molecule: VAENQQGKS (listed as Homo sapiens) [nonamer Val 76-Ser 84]
- stimulatory effect retained as compared to the entire (non-mutated) FG loop peptide ([1]; 50 μM peptide): approximately 50%

Molecule: basic fibroblast growth factor: growth factor, natural ligand of the FGF-receptor, comparison in the survival assay [reference compound]
- cells surviving, high potassium set at 100% [2]: ~60%

B1: brains-derived neurotrophic factor: neurotrophic factor used as comparison in the survival assay (protein, UniProt P23560 19-247, looked up)
Neurotrophic factor BDNF …: APMKEANIRGQGGLAYPGVRTHGTLESVNGPKAGSRGLTSLADTFEHVIEELLDEDQKVRPNEENNKDADLYTSRVMLSSQVPLEPPLLFLLEEYKNYLDAANMSMRVRRHSDPARRGELSVCDSISEWVTAADKKTAVDMSGGTVTVLEKVPVSKGQLKQYFYETKCNPMGYTKEGCRGIDKRHWNSQCRTTQSYVRALTMDSKKRIGWRFIRIDTSCVCTLTIKRGR
- cells surviving, high potassium set at 100% [2]: ~60%
